Numbers after ± are expanded uncertainties.
Settings: 101.33 kPa, Liquid; for speed of sound: Sing-around technique in a fixed-path interferometer

C=C(C)C(=O)OC [methyl methacrylate] showed a mass density (298.15 K) of 937.6 ± 0.28 kg/m3, a speed of sound (298.15 K) of 1182 ± 2 m/s and a mass density (308.15 K) of 925.7 ± 0.3 kg/m3. For the same compound, the speed of sound (308.15 K) was 1152 ± 2 m/s.

With Cc1ccccc1 [toluene] the mass density (298.15 K) was 862.21 ± 0.38 kg/m3, the speed of sound (298.15 K) was 1304 ± 2 m/s and the mass density (308.15 K) was 852.86 ± 0.39 kg/m3. The speed of sound (308.15 K) was 1262 ± 2 m/s.

Work on CCCCO [butan-1-ol] yielded a mass density (298.15 K) of 805.91 ± 0.56 kg/m3, a speed of sound (298.15 K) of 1244 ± 2 m/s and a mass density (308.15 K) of 798.21 ± 0.57 kg/m3. It also gave a speed of sound (308.15 K) of 1212 ± 2 m/s.

CCCCCO [pentan-1-ol] gave a mass density (298.15 K) of 810.76 ± 0.56 kg/m3, a speed of sound (298.15 K) of 1274 ± 2 m/s and a mass density (308.15 K) of 803.41 ± 0.57 kg/m3. It also gave a speed of sound (308.15 K) of 1240 ± 2 m/s.

CCc1ccccc1 [ethylbenzene] gave a mass density (298.15 K) of 862.63 ± 0.38 kg/m3, a speed of sound (298.15 K) of 1319 ± 2 m/s and a mass density (308.15 K) of 853.89 ± 0.39 kg/m3. It also gave a speed of sound (308.15 K) of 1276 ± 2 m/s.

CCCCCCCO [heptan-1-ol] showed a mass density (298.15 K) of 818.91 ± 0.55 kg/m3, a speed of sound (298.15 K) of 1330 ± 2 m/s and a mass density (308.15 K) of 811.94 ± 0.55 kg/m3. The speed of sound (308.15 K) was 1292 ± 2 m/s.

Work on c1ccccc1 [benzene] yielded a mass density (298.15 K) of 873.58 ± 0.36 kg/m3, a speed of sound (298.15 K) of 1300 ± 2 m/s and a mass density (308.15 K) of 862.96 ± 0.38 kg/m3. The speed of sound (308.15 K) was 1260 ± 2 m/s.

Cc1ccc(C)cc1 [1,4-dimethylbenzene] gave a mass density (298.15 K) of 856.7 ± 0.39 kg/m3, a speed of sound (298.15 K) of 1314 ± 2 m/s and a mass density (308.15 K) of 847.88 ± 0.4 kg/m3. The speed of sound (308.15 K) was 1272 ± 2 m/s.

Compound C1CCCCC1 [cyclohexane] has a mass density (298.15 K) of 773.86 ± 0.51 kg/m3, a speed of sound (298.15 K) of 1254 ± 2 m/s and a mass density (308.15 K) of 764.46 ± 0.53 kg/m3. For the same compound, the speed of sound (308.15 K) was 1212 ± 2 m/s.

— the NIST ThermoML archive (doi:10.1021/je100652b)
